Measurements reported in patent publication US5494909A, “Substituted oxazinoisoquinoline derivatives, pharmaceutical compositions containing them and process for preparing same” (priority 1991, dated 1996).

Columns and labels:
[1] = tested on: excitatory amino acid receptor-dependent calcium channels; conditions: literature; cited from earlier work
[2] = tested on: Veratrine-stimulated Ca uptake, synaptosomes prepared from rat brain; type: biochemical, rat (Wistar)
Excerpt: (§1) The calcium uptake-inhibitory effect of the compounds of the formula (I) according to the invention was studied on synaptosomes prepared from rat brain by using a method described in J. Neurochem.
(§2) Wistar rats weighing 180 to 200 g were decapitated and the brains were collected in ice-cold physiological saline, the cortex was removed and purified from the white matter. The tissue was homogenized by a glass-teflon potter in 10 volumes of a saccharose solution of 0.32 moles/liter concentration. The homogenate was centrifuged at 1000×g in a Janetzki K-70 centrifuge at 4° C. for 10 minutes, the supernatant was centrifuged at 12000×g in a Hitachi CR-26H centrifuge at 4° C. for 20 minutes. The sediment was suspended in a saccharose solution of 0.32 moles/liter concentration, then the protein content of the preparation was adjusted to 20 mg/ml.
Components of the solution used for incubation were as follows: […]
After placing the filter disks in glass cuvets, 10 ml of scintillation cocktail [containing 1000 ml of toluene, 400 ml of abs. ethanol, 10 ml of dioxane, 6 g of 2,5-diphenyloxazole and 0.15 g of 1,4-bis(5-phenyl-2-oxazolyl)benzene] and the radioactivity of the samples was measured by using an 1219 Rackbeta type liquid scintillation spectrophotometer (product of LKB Wallace Company).

[3] = tested on: genetically hypertensive rats (SHR); experiment: The hypobaric hypoxia test; type: in vivo, rat (genetically hypertensive; conditions: Rattus norvegicus, 1 h; male SHR rats; 22.66 kPa; one hour after administration; protected = survival time 30% longer than control
Excerpt: The antihypoxic effect of the target compounds was studied on genetically hypertensive rats (SHR), which are particularly sensitive to hypoxic insults. Male rats weighing 210 to 230 g each were used for these experiments.
The hypobaric hypoxia test
The experimental animals were placed in pairs in a desiccator of 6 liters volume one hour after administration of the compound to be tested. The pressure in the desiccator was decreased to 22.66 kPa (170 mmHg) during 20 seconds. The time elapsing from this point until the last respiratory movement was measured. An animal was considered to be protected when its survival time was by 30% longer in comparison with the control group.

Oral toxicity (LD50) = conditions: in vivo
[4] = tested on: Potassium-stimulated Ca uptake, synaptosomes prepared from rat brain; experiment: Inhibition of potassium-stimulated calcium uptake into rat brain synaptosomes; conditions: for IC50: read-out: Inhibition of Potassium-stimulated Ca uptake IC50, 60 mmoles/l KCl, rat synaptosomes, pH 7.4, 37° C., 20 seconds
Excerpt: as §1, §2
Components of the solution used for incubation were as follows:
Incubation solution was saturated with oxygen containing 5% by volume of carbon dioxide until reaching a pH value of 7.4. The test compounds and the synaptosome preparation in an amount corresponding to 1 mg of protein were added into the incubation solution. The final volume of incubation was 1 ml. The samples were pre-incubated at 37° C. for 20 minutes.
The calcium uptake was initiated by addition of a 45CACl2 solution of 2.8 kBq (75 nCi) activity. Potassium chloride was used in a concentration of 60 mmoles/l for the investigation of potassium-stimulated calcium uptake; sodium chloride was added in the same concentration to the control samples.
The incubation time was 20 seconds. The reaction stopped by adding 5 ml of a stopping solution containing 120 mmoles/l of sodium chloride, 5 mmoles/l of potassium chloride, 5 mmoles/l of EGTA [ethylene glycol bis(β-aminoethyl)ether-N,N, N',N'-tetraacetic acid]and 20 mmoles/l of TRIS (pH 7.4).

[5] = qualitative / comparison with reference drug

SMILES | effect on excitatory amino acid receptor-dependent calcium channels (in words) [1] | veratrine-induced calcium uptake inhibitory effect (in words) [2, 5] | IC50 ([2]; veratrine 20 μmoles/l, rat synaptosomes, pH 7.4, 37° C., 20 seconds, read-out: Inhibition of Veratrine-stimulated Ca uptake IC50) [µM] | ED50 [3] [mg/kg] | LD50 (Oral toxicity (LD50)) [mg/kg] | potassium-induced calcium uptake inhibitory effect (in words) [4, 5] | IC50 [4] [µM]
C[C@]12N[C@H](Cc3ccccc31)c1ccccc12 [MK-801, (+)-5-methyl-10,11-dihydro-5H-dibenzo[a,d]cyclohepten-5,10-imine] | inhibit the excitatory amino acid receptor-dependent calcium channels | – | – | – | – | – | –
COc1cc2c(cc1OCc1ccccc1)CCN1C(=Nc3ccc(C)cc3)OCCC21.Cl (stereo not shown) [compound 1507136, 9-benzyloxy-10-methoxy-4-(p-tolylimino)-1,6,7,11b-tetrahydro-2H,4H-1,3-oxazino[4,3-a]isoquinoline hydrochloride] | – | to a higher degree than flunarizine did | 0.29 | 8 | 1400 | exceeds that of cinnarizine | 23.9
Fc1ccc(C(c2ccc(F)cc2)N2CCN(C/C=C/c3ccccc3)CC2)cc1 [flunarizine] | – | – | – | 50 | – | – | –
COCCOC(=O)C1=C(C)NC(C)=C(C(=O)OC(C)C)C1c1cccc([N+](=O)[O-])c1 (stereo not shown) [nimodipine, isopropyl 2methoxyethyl 1,4dihydro-2,6-dimethyl-4-(mnitrophenyl)-3,5-pyridinedicarboxylate, reference compound] | – | – | – | 8 | – | – | 208
